From paper PMC6039436, “Radiobrominated benzimidazole-quinoline derivatives as Platelet-derived growth factor receptor beta (PDGFRβ) imaging probes” (Scientific Reports, 2018)
Where “and” joins values, the source holds several entries; their conditions need not be identical. Identical values can stand only once.

Legend:
[1] = n-octanol/phosphate buffer partition coefficient; assay type: physicochemical; conditions: n-octanol / 0.1 M phosphate buffer pH 7.4; read-out: n-octanol/phosphate buffer partition coefficient (log P)
Method: The n-octanol/phosphate buffer partition coefficients of [^77Br]2 were 2.36 ± 0.06 which were lower than [^77Br]3 (3.02 ± 0.04). These values are lower than radioiodinated compounds, [^125I]4 and [^125I]5 at 2.71 ± 0.03 and 3.19 ± 0.17, respectively.
Partition coefficients of [^77Br]2 and [^77Br]3 into n-octanol and 0.1 M phosphate buffer (PB) pH 7.4 were determined using the method described previously. The measurement was performed in quadruplicate. The partition coefficient was determined by calculating the ratio of cpm/mL of n-octanol to that of buffer and expressed as log P. Radioactivity of each layer were counted by a gamma counter.

[2] = In vitro stability in 0.1 M PBS (pH 7.4); assay type: physicochemical; conditions: 24 h incubation at 37 °C, purity by TLC
Method: The stability of [^77Br]2 and [^77Br]3 in 0.1 M phosphate-buffered saline (PBS) (pH 7.4) was high (93.6 ± 0.9% and 93.0 ± 0.6%, respectively). There was no significant decomposition after 24 h incubation at 37 °C for either radiotracer.
The stability of radiolabeled compounds, [^77Br]2 and [^77Br]3, were analyzed as described previously. The purities radiolabeled compounds were determined by TLC using chloroform/methanol = 5/1 and 20/1 as a developing solvent for [^77Br]2 and [^77Br]3, respectively. The results were confirmed by RP-HPLC.

BxPC3-luc cells = assay: In vitro blocking study; assay type: cell-based; conditions: inhibitor 1, 2 or 3 at 10 µM, 10 min pretreatment
Method: Blocking studies using 1, 2, and 3 were performed (Fig. 6). Pretreatment of an excess amount of 1 or 2 decreased uptakes of [^77Br]2 in BxPC3-luc cells. The uptake of [^77Br]3 was inhibited by a pretreatment using 1 or 3 in the same way.
Figure 6 In vitro blocking studies of (a) [^77Br]2 and (b) [^77Br]3 in BxPC3-luc and MCF7 cells. Data were presented as mean ± SD for three samples. Significance was determined using a one-way ANOVA followed by Dunnett’s post hoc test (^*p < 0.001, vs control [^77Br]2 or [^77Br]3).
For in vitro blocking experiment, inhibitor (1, 2, or 3 with final concentration 10 µM) in 1 mL of medium without FBS was added to wells containing 2 × 10^5 cells/well. After 10 min incubation, [^77Br]2 or [^77Br]3 (3.7 kBq/well) in 1 mL of medium without FBS was added to each well. Radioactivity and protein concentration in the cells were determined by the same method above-mentioned.

[3] = Biodistribution in ddY mice; assay type: in vivo; conditions: i.v. co-injection
Outline: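 ddY mice got a 100 µL tail-vein injection of [^77Br]2 with [^125I]4, or [^77Br]3 with [^125I]5 (74 kBq each), in saline containing 10% ethanol and 1% tween-80. Animals were killed at 10 min, 1, 4 and 24 h; tumor-bearing mice were killed at 1 h. Resected tissues were weighed and gamma-counted with background correction, and values are %ID/g.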

BxPC3-luc tumor = assay: Biodistribution in BxPC3-luc tumor-bearing mice; assay type: in vivo, BALB/c nu/nu mice; conditions: i.v. co-injection, 1 h
Outline: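 BALB/c nu/nu mice bearing subcutaneous BxPC3-luc tumours received 74 kBq each of co-injected ^77Br and ^125I tracers i.v. in saline with 10% ethanol, 1% tween-80. Sacrificed 1 h postinjection; tissues weighed and gamma-counted. Values are %ID/g.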

- logP [1]: 3.02 ± 0.04
- Stability in 0.1 M PBS (pH 7.4) [2]: 93.0 ± 0.6%
- Radioactivity in Blood ([3]; 10 min): 1.68 (0.07) %injected dose/gram tissue
- Radioactivity in Bone ([3]; 10 min): 1.88 (0.15) %injected dose/gram tissue
- Radioactivity in Brain ([3]; 10 min): 0.43 (0.02) %injected dose/gram tissue
- Radioactivity in Heart ([3]; 10 min): 2.70 (0.24) %injected dose/gram tissue
- Radioactivity in Kidney ([3]; 10 min): 5.21 (0.53) %injected dose/gram tissue
- Radioactivity in Large intestine ([3]; 10 min): 0.88 (0.08) %injected dose/gram tissue
- Radioactivity in Liver ([3]; 10 min): 25.80 (2.54) %injected dose/gram tissue
- Radioactivity in Lung ([3]; 10 min): 3.08 (0.65) %injected dose/gram tissue
- Radioactivity in Muscle ([3]; 10 min): 1.28 (0.19) %injected dose/gram tissue
- Radioactivity in Pancreas ([3]; 10 min): 2.61 (0.20) %injected dose/gram tissue
- Radioactivity in Small intestine ([3]; 10 min): 3.28 (0.32) %injected dose/gram tissue
- Radioactivity in Spleen ([3]; 10 min): 3.05 (1.14) %injected dose/gram tissue
- Radioactivity in Stomach ([3]; 10 min): 1.31 (0.22) %injected dose /organ
- Radioactivity in Blood ([3]; 1 h): 0.65 (0.05) %injected dose/gram tissue
- Radioactivity in Bone ([3]; 1 h): 1.60 (0.27) %injected dose/gram tissue
- Radioactivity in Brain ([3]; 1 h): 0.22 (0.05) %injected dose/gram tissue
- Radioactivity in Heart ([3]; 1 h): 1.14 (0.09) %injected dose/gram tissue
- Radioactivity in Kidney ([3]; 1 h): 2.03 (0.33) %injected dose/gram tissue
- Radioactivity in Large intestine ([3]; 1 h): 2.23 (0.75) %injected dose/gram tissue
- Radioactivity in Liver ([3]; 1 h): 7.59 (0.76) %injected dose/gram tissue
- Radioactivity in Lung ([3]; 1 h): 1.18 (0.10) %injected dose/gram tissue
- Radioactivity in Muscle ([3]; 1 h): 0.91 (0.45) %injected dose/gram tissue
- Radioactivity in Pancreas ([3]; 1 h): 1.24 (0.16) %injected dose/gram tissue
- Radioactivity in Small intestine ([3]; 1 h): 14.30 (0.23) %injected dose/gram tissue
- Radioactivity in Spleen ([3]; 1 h): 1.47 (0.20) %injected dose/gram tissue
- Radioactivity in Stomach ([3]; 1 h): 1.10 (0.24) %injected dose /organ
- Radioactivity in Blood ([3]; 4 h): 0.25 (0.04) %injected dose/gram tissue
- Radioactivity in Bone ([3]; 4 h): 1.32 (0.12) %injected dose/gram tissue
- Radioactivity in Brain ([3]; 4 h): 0.19 (0.01) %injected dose/gram tissue
- Radioactivity in Heart ([3]; 4 h): 0.65 (0.05) %injected dose/gram tissue
- Radioactivity in Kidney ([3]; 4 h): 0.65 (0.15) %injected dose/gram tissue
- Radioactivity in Large intestine ([3]; 4 h): 28.99 (2.21) %injected dose/gram tissue
- Radioactivity in Liver ([3]; 4 h): 2.19 (1.38) %injected dose/gram tissue
- Radioactivity in Lung ([3]; 4 h): 0.45 (0.07) %injected dose/gram tissue
- Radioactivity in Muscle ([3]; 4 h): 0.57 (0.24) %injected dose/gram tissue
- Radioactivity in Pancreas ([3]; 4 h): 0.68 (0.10) %injected dose/gram tissue
- Radioactivity in Small intestine ([3]; 4 h): 4.50 (2.02) %injected dose/gram tissue
- Radioactivity in Spleen ([3]; 4 h): 0.88 (0.08) %injected dose/gram tissue
- Radioactivity in Stomach ([3]; 4 h): 0.59 (0.26) %injected dose /organ
- Radioactivity in Blood ([3]; 24 h): 0.39 (0.05) %injected dose/gram tissue
- Radioactivity in Bone ([3]; 24 h): 1.32 (0.17) %injected dose/gram tissue
- Radioactivity in Brain ([3]; 24 h): 0.20 (0.02) %injected dose/gram tissue
- Radioactivity in Heart ([3]; 24 h): 0.72 (0.11) %injected dose/gram tissue
- Radioactivity in Kidney ([3]; 24 h): 0.37 (0.05) %injected dose/gram tissue
- Radioactivity in Large intestine ([3]; 24 h): 0.18 (0.00) %injected dose/gram tissue
- Radioactivity in Liver ([3]; 24 h): 0.18 (0.04) %injected dose/gram tissue
- Radioactivity in Lung ([3]; 24 h): 0.56 (0.07) %injected dose/gram tissue
- Radioactivity in Muscle ([3]; 24 h): 0.54 (0.04) %injected dose/gram tissue
- Radioactivity in Pancreas ([3]; 24 h): 0.68 (0.03) %injected dose/gram tissue
- Radioactivity in Small intestine ([3]; 24 h): 0.18 (0.05) %injected dose/gram tissue
- Radioactivity in Spleen ([3]; 24 h): 0.72 (0.24) %injected dose/gram tissue
- Radioactivity in Stomach ([3]; 24 h): 0.35 (0.06) %injected dose /organ
- Radioactivity in Stomach (BxPC3-luc tumor): 0.67 (0.14) %injected dose /organ
SMILES: COCCOc1ccc2c(c1)ncn2-c1ccc2cccc(N3CCC(NC(=O)c4cccc([77Br])c4)CC3)c2n1 [[^77Br]3, [^77Br]-N-3-bromobenzoyl-1-{2-[5-(2-methoxyethoxy)-1H-benzo[d]imidazol-1-yl]quinolin-8-yl}-piperidin-4-amine]
- Uptake in BxPC3-luc cells after pretreatment with excess inhibitor (BxPC3-luc cells): inhibited
- Radioactivity in Blood (BxPC3-luc tumor): 1.16 (0.02) %injected dose/gram of tissue
- Radioactivity in Bone (BxPC3-luc tumor): 1.32 (0.08) %injected dose/gram of tissue
- Radioactivity in Brain (BxPC3-luc tumor): 0.17 (0.02) %injected dose/gram of tissue
- Radioactivity in BxPC3-luc tumor (BxPC3-luc tumor): 1.15 %injected dose/gram of tissue and 1.15 (0.35) %injected dose/gram of tissue
- Radioactivity in Heart (BxPC3-luc tumor): 1.83 (0.04) %injected dose/gram of tissue
- Radioactivity in Kidney (BxPC3-luc tumor): 5.95 (0.16) %injected dose/gram of tissue
- Radioactivity in Large intestine (BxPC3-luc tumor): 5.53 (0.96) %injected dose/gram of tissue
- Radioactivity in Liver (BxPC3-luc tumor): 19.82 (2.48) %injected dose/gram of tissue
- Radioactivity in Lung (BxPC3-luc tumor): 3.02 (0.51) %injected dose/gram of tissue
- Radioactivity in Muscle (BxPC3-luc tumor): 1.05 (0.18) %injected dose/gram of tissue
- Radioactivity in Pancreas (BxPC3-luc tumor): 2.15 (0.13) %injected dose/gram of tissue
- Radioactivity in Small intestine (BxPC3-luc tumor): 32.72 (3.10) %injected dose/gram of tissue
- Radioactivity in Spleen (BxPC3-luc tumor): 2.51 (0.17) %injected dose/gram of tissue
